Source: article PMC3432147 (Bioorganic & medicinal chemistry letters, 2012)
In brackets after ≈: the same amount, converted by molar mass.

How the values were obtained:
[1] = biological target: T1, Human sEH (Homo sapiens, UniProt P34913); test: Inhibition of human sEH, fluorescent substrate assay; format: biochemical
T1 sequence (P34913 1-555): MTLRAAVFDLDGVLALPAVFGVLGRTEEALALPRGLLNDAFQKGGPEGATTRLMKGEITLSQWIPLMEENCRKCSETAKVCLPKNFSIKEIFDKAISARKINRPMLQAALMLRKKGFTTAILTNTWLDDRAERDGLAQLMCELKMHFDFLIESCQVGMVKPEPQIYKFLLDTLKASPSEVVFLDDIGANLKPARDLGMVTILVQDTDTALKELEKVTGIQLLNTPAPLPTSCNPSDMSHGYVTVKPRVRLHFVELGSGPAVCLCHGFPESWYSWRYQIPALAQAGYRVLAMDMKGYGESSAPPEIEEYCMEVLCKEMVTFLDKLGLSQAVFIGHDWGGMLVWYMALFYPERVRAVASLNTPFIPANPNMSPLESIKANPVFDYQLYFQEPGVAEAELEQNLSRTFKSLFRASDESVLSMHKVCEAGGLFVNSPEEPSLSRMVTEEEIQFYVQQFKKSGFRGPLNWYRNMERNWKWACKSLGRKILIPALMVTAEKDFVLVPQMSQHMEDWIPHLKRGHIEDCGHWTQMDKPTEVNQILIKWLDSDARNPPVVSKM

[2] = In vitro metabolic stability in human liver microsomes; conditions: for Stability (% remaining): human liver microsomal protein 0.125 mg, NADPH generating system, 37°C, 60 min, parent by LC-MS/MS, triplicate; for fold improved metabolic stability compared to compound 6: versus compound 6; for fold lower stability compared to compound 13: versus compound 13
[3] = Solubility in water; format: physicochemical; conditions: for fold improved water solubility compared to alkyl substituted inhibitors (4 or 6): versus compounds 4 or 6

| Structure (SMILES) | Stability (% remaining) [2] [% remaining] | fold improved metabolic stability compared to compound 6 ([2]; human liver microsomes) [fold] | fold lower stability compared to compound 13 ([2]; human liver microsomes) [fold] | other results |
| --- | --- | --- | --- | --- |
| CCCCC(C#N)OC(=O)CCCNC(=O)NC12CC3CC(CC(C3)C1)C2 (stereo not drawn) [Compound 7] | – | – | – | fold decrease in inhibition potency in comparison with methyl (5) or ethyl (6) ([1]; versus compounds 5 or 6): 3 fold |
| CCOCCOCCOC(=O)CCCNC(=O)NC12CC3CC(CC(C3)C1)C2 [Compound 8] | 10 | > 2.5 | 3 | fold reduction in inhibition compared to compounds 4, 5 and 6 ([1]; versus compounds 4, 5 and 6): 7–17 fold |
| CCOCCOCC(OC(=O)C1CCCC(NC(=O)NC23CC4CC(CC(C4)C2)C3)C1)c1ccccc1 (stereo not drawn) [Compound 13] | 32 | – | – | fold improved stability compared to compound 9 ([2]; human liver microsomes, versus compound 9): ~2 fold; fold improved water solubility compared to alkyl substituted inhibitors (4 or 6) [3]: 20–45 fold |
| O=C(O)CCCNC(=O)NC12CC3CC(CC(C3)C1)C2 [Compound 3, 4-(3-adamantan-1-yl-ureido)-butyric acid] | 97 | – | – | parent acid determined after microsomal incubation ([2]; human liver microsomes): > 95%; solubility at 24 h ([3]; sodium phosphate buffer, pH 7.4): 7 µg/mL (≈ 25 µM) |
| CCOCCOCC(OC(=O)CCCNC(=O)NC12CC3CC(CC(C3)C1)C2)c1ccccc1 (stereo not drawn) [Compound 9] | 14 | > 2.5 | ~2 | fold improved water solubility compared to alkyl substituted inhibitors (4 or 6) [3]: 20–45 fold |
| CCCCCOC(=O)CCCNC(=O)NC12CC3CC(CC(C3)C1)C2 [Compound 4] | <1 | – | – | metabolism in human liver microsomal incubation ([2]; human liver microsomes): all metabolized to the corresponding butyric acid |
| CCCCC(CC)OC(=O)C1CCCC(NC(=O)NC23CC4CC(CC(C4)C2)C3)C1 (stereo not drawn) [Compound 12] | 10 | 2.5 | 3 | – |
| CCCCC(C)OC(=O)CCCNC(=O)NC12CC3CC(CC(C3)C1)C2 (stereo not drawn) [Compound 5] | – | – | – | fold improvement in inhibition potency compared to compound 4 ([1]; versus compound 4): 2.5 fold |
| CCCCC(CC)OC(=O)CCCNC(=O)NC12CC3CC(CC(C3)C1)C2 (stereo not drawn) [Compound 6] | 4 | – | – | – |
| O=C(NC1CCCC(C(=O)O)C1)NC12CC3CC(CC(C3)C1)C2 (stereo not drawn) [Compound 10, 3-(3-adamantan-1-yl-ureido)-cyclohexylcarboxylic acid] | 95 | – | – | parent acid determined after microsomal incubation ([2]; human liver microsomes): > 95% |
